Experimental findings from patent US5709816A, “Singlet oxygen quenchers and external compositions containing the same” (Kao Corporation, priority 1899, dated 1998) are described below.

A short description of assay [1]: Quenching rate constant of singlet oxygen (Rose Bengal photosensitization, Stern-Volmer method). It counts as biochemical. Conditions: kq; ethanol solution, 50 μM Rose Bengal; singlet oxygen lifetime taken as 10 μs. From the text: Method for measuring the quenching rate constant of singlet oxygen:
The apparatus used for measuring singlet oxygen included the following parts.
(1) Light source: Xenon lamp (150 W) (Atago Bussan K.K.)
(2) Filters on the excitation side: Water filter (optical path: 50 mm), Color glass filters (HA-15, HA-30, G-533, manufactured by Hoya K.K.)
(3) Sample: Square quartz cell (2×10×50 mm)
(4) Filters on the detection side: Color glass filter (IR-85, manufactured by Hoya K.K.), Interference filter (Nippon Shinku-Kogaku K.K.)
(5) Spectrometer and detector: Spectrometer (HR-320, Jovin Yvon Co.), Germanium (Ge) detector (EO-817L, a type using liquid nitrogen as a coolant, North coast Scientic Corporation)
(6) Amplifier: Light chopper (5584, NF Co.), Frequency filter (E-3201B, NF Co.), Super low noise amplifier (SA-200F3, NF Co.), Digital storage oscilloscope (2431L, SONY Tektronix Co.)
(7) Recording section: Personal computer (PC-9801 BA, NEC Corporation), GP-IB interface
(8) Oxygen concentration control unit: High-pressure oxygen cylinder
Using this apparatus, light was irradiated onto a system which is known to produce singlet oxygen through photochemical sensitization. The wavelength of the light was within an appropriate absorption range of the photosensitizer employed. weak emission in the near infrared region, which is specific to singlet oxygen, was measured for its intensity I. Subsequently, the emission obtained when a test substance was added to the same system was measured. From the decrease in emission intensity I, the quenching rate constant of singlet oxygen of the test substance could be measured in accordance with the Stern-Volmer method. However, since some substances react with the photochemical sensitization system to cause errors in the measurements, the method described by R. H. Young et al., Photochem. Photobiol., vol. 17, p. 233 (1973) was applied to correct this contribution quenching.
A 50 μM ethanol solution of Rose Bengal in a 400 μl square quartz cell was used as a test substance.
First, the light within 490-590 nm, which is appropriate for the maximum absorption wavelength of Rose Bengal, was irradiated onto the cell containing the test substance.
Similarly, another system was subjected to measurement in which a typical singlet oxygen quencher, β-carotene, sodium azide,or 1,4-diazabicyclo[2.2.2]octane, had been added.
Measurement of the quenching rate constant of singlet oxygen: An ethanol solution of each of compounds obtained in the above-described Synthesis Examples and N-phenyldiethanolamine (compound (36)), with Rose Bengal, as a conventional photosensitizer, was used for the measurement of the quenching rate constants of singlet oxygen.
First, emission intensity I of a mixture solution containing 50 μM of Rose Bengal and the above compounds were measured under saturated air conditions. The ratio IOair /Iair was calculated, wherein Iair represents the emission intensity measured for a solution with a test substance at a concentration of Cq (Iair), and Oair represents the emission intensity measured for a solution without test substance. Next, under saturated oxygen conditions, emission intensity was measured for a solution with a test substance at the same concentration Cq (I302). Using these emission intensities, the correction term Fair was obtained in accordance with the following equation.
Interference attributed to the test substance with respect to the photosensitization reaction system was corrected by multiplying IOair /Iair by Fair.
Using the following equation:
(IOair /Iair)'=1+kq ·.tau.·Cq

Assay [2] relates to skin of white guinea pigs. Description: Inhibition of erythema formation (UV-A/UV-B irradiation). It counts as in vivo. Conditions: Cavia porcellus, light or radiation study, topical; 5 wt. % in ethanol; UV-A/UV-B 40 J/cm^2; determined after 1 day and 2 days; read-out: Erythema inhibition rate. From the text:
Inhibition of erythema formation
The hair of white guinea pigs (8 weeks old, female) hair was removed by shaving, and an ethanol solution containing a test substance (5 wt. %) was applied to the shaved part of each animal. A mixture of UV-A/UV-B (40 J/cm^2, measured at 365 nm using a UV-radiometer UVR-305/365-D, Torex Co.) was irradiated onto the back of each guinea pig using a solar simulator Model 1600 (Solar Light Co.). After 1 day and 2 days of irradiation, the erythema formation was visually determined by the standards of the Japanese Dermatological Association to obtain erythema inhibition ratios.

Assay [3] concerns sunburn cells in skin of ICR/HR mice. Description: Inhibition of sunburn cell formation (UV-B irradiation). The class given is in vivo. Conditions: Mus musculus, light or radiation study, topical; 1 wt. % in ethanol; UV-B 100 mJ/cm^2; 24 hours later; read-out: Inhibition ratio regarding sunburn cell formation. An excerpt: Inhibition of sunburn cell formation
Ethanol solution of a test substance (1 wt. %) was applied onto the skin of ICR/HR mice. UV-B (100 mJ/cm^2) was irradiated onto the skin (health lamp SE20/SLE, Toshiba). Twenty-four hours later, the skin was biopsied and stained using hematoxylin & eosin, after which the number of sunburn cells were counted under microscope.

The subject of assay [4] is dopachrome formation from dopa. Description: Inhibition of immediate pigment darkening (dopachrome formation from dopa, porphyrin + UV). The class given is biochemical. The settings on record: 0.5 wt. % in ethanol; dopa 1 mM, porphyrin 5 mM; UV-A/UV-B 3 J/cm^2; absorption at 475 nm. As to the method: Inhibition of immediate pigment darkening
An ethanol solution containing a test substance (0.5 wt. %) was added to a mixture of dopa (1 mM) and porphyrin (5 mM). A mixture of UV-A/UV-B (3 J/cm^2, measured at 365 nm) was irradiated onto the resultant mixture using a solar simulator. The amount of dopachrome formed by irradiation was determined by measuring absorption at 475 nm.

The test system of another assay is collagen. Briefly: Inhibition of protein denaturation (collagen crosslinking, porphyrin + UV). The class given is biochemical. The settings on record: 0.1 wt. % in ethanol; collagen 0.5 mg/ml, porphyrin 100 mM; UV-A/UV-B 3 J/cm^2; SDS-PAGE. Here is the method: Inhibition of protein denaturation
An ethanol solution containing a test substance (0.1 wt. %) was added to a mixture of collagen (0.5 mg/ml) and 2 porphyrin (100 mM). A mixture of UV-A/UV-B (3 J/cm^2, measured at 365 nm) was irradiated onto the resultant mixture using a solar simulator. The irradiated mixture was applied to SDS-PAGE electrophoresis, and collagen crosslinking inhibition ratios were measured.

The subject of a further assay is skin of ICR/HR mice. Description: Inhibition of wrinkle formation in the skin of mice (UV-B, 16 weeks). It counts as in vivo, ICR/HR mouse. Conditions: Mus musculus, topical, 2688 h; 1 wt. % in ethanol; 1 MED UV-B five times per week over sixteen weeks. From the text: Inhibition of wrinkle formation in the skin of mice
To the back of each ICR/HR mouse (female, 6 weeks old), an ethanol solution containing a test substance (1 wt. %) was applied. One (1) MED of UV-B was irradiated thereto using a health lamp SL20-SLE (Toshiba). Irradiation was repeated five times per week over sixteen weeks. Wrinkle formation was visually scored using the following five rankings.
1: Mild and questionable wrinkles are observed
2: Mild but clear and definite wrinkles are observed
3: Moderate wrinkles are observed
4: Severe wrinkles are observed
Using the above rankings, wrinkle formations were scored and the inhibition ratios were determined by the division by the blank score.

Structures are written as SMILES.

On to `COCC(O)CN(C)c1ccc(OC)cc1` (stereo not drawn) [Compound (1), N-(2-hydroxy-3-methoxypropyl)-N-methyl-p-anisidine], for which, in assay [1], the “Extinction rate constant of singlet oxygen” value (from here on “Extinction rate constant”) amounted to 2.2e+08 M⁻¹ s⁻¹. Also, the inhibition in vivo at 5 % in assay [2] is 68%. Besides, the figures for the inhibition in vivo at 1 % (in assay [3]; in the assay with skin of ICR/HR mice) were 79% and 47%, respectively. Moreover, the “Inhibition ratio regarding immediate blackening” value in assay [4] turned out to be 71%. Also, the “Protein denaturation inhibition ratio” value in the assay on collagen is reported as 85%.
With `CCCCN(CC(O)COC)c1ccc(OC)cc1` (stereo not drawn) [Compound (2), N-n-butyl-N-(2-hydroxy-3-methoxypropyl)-p-anisidine], the “Extinction rate constant” value in assay [1] stood at 2e+08 M⁻¹ s⁻¹. Further, in assay [2], the inhibition in vivo at 5 % amounted to 42%. Besides, the inhibition in vivo at 1 % was 53% in assay [3] and 38% in the assay with skin of ICR/HR mice. Also, the “Inhibition ratio regarding immediate blackening” value in assay [4] worked out at 57%. The “Protein denaturation inhibition ratio” value with collagen is on record as 62%.
With `CCCCCCCCN(CC(O)COC)c1ccc(OC)cc1` (stereo not drawn) [Compound (3), N-(2-hydroxy-3-methoxypropyl)-N-n-octyl-p-anisidine], the “Extinction rate constant” value in assay [1] is 2.3e+08 M⁻¹ s⁻¹. Besides, the inhibition in vivo at 5 % in assay [2] is 71%. For the same compound, the values for the inhibition in vivo at 1 % (in assay [3]; in the assay with skin of ICR/HR mice) were 86% and 58%, respectively. Also, the “Inhibition ratio regarding immediate blackening” value in assay [4] is recorded as 83%. The “Protein denaturation inhibition ratio” value in the assay with collagen amounted to 93%.
As for `COCC(O)CN(CC(O)COC)c1ccc(C)cc1` (stereo not drawn) [Compound (4), N,N-bis(2-hydroxy-3-methoxypropyl)-p-toluidine], the “Extinction rate constant” value in assay [1] turned out to be 2.1e+08 M⁻¹ s⁻¹. Besides, the inhibition in vivo at 5 % in assay [2] turned out to be 69%. Moreover, the inhibition in vivo at 1 % turned out to be 81% in assay [3] and 51% in the assay with skin of ICR/HR mice. Besides, in assay [4], the “Inhibition ratio regarding immediate blackening” value turned out to be 76%. In the assay on collagen, the “Protein denaturation inhibition ratio” value is reported as 87%.
Turning to `CCCCN(CC(O)COC)c1ccc(C)cc1` (stereo not drawn) [Compound (5), N-n-butyl-N-(2-hydroxy-3-methoxypropyl)-p-toluidine], the “Extinction rate constant” value in assay [1] is 1.5e+08 M⁻¹ s⁻¹. The inhibition in vivo at 5 % in assay [2] was found to be 65%. For the same compound, the values for the inhibition in vivo at 1 % (in assay [3]; in the assay on skin of ICR/HR mice) were 65% and 43%, respectively. In addition, the “Inhibition ratio regarding immediate blackening” value in assay [4] worked out at 65%. Further, the “Protein denaturation inhibition ratio” value in the assay on collagen is recorded as 81%.
On to `CCCCN(CC(O)COC)c1ccccc1` (stereo not drawn) [Compound (6), N-n-butyl-N-(2-hydroxy-3-methoxypropyl)aniline], for which the “Extinction rate constant” value in assay [1] stood at 1.1e+08 M⁻¹ s⁻¹. Besides, the inhibition in vivo at 5 % in assay [2] amounted to 37%. In addition, the figures for the inhibition in vivo at 1 % (in assay [3]; in the assay on skin of ICR/HR mice) were 46% and 36%, respectively. In addition, the “Inhibition ratio regarding immediate blackening” value in assay [4] worked out at 53%. Also, the “Protein denaturation inhibition ratio” value with collagen was determined as 53%.
`CCCCN(CC(O)COC)c1ccc(C)c(C)c1` (stereo not drawn) [Compound (32), N-n-butyl-N-(2-hydroxy-3-methoxypropyl)-3,4-xylidine]: the “Extinction rate constant” value in assay [1] was determined as 1.6e+08 M⁻¹ s⁻¹. Besides, the inhibition in vivo at 5 % in assay [2] stood at 53%. Also, the inhibition in vivo at 1 % in assay [3] stood at 61%; in the assay with skin of ICR/HR mice, 43%. The “Inhibition ratio regarding immediate blackening” value in assay [4] was found to be 56%. Besides, the “Protein denaturation inhibition ratio” value in the assay with collagen was 88%.
As to `Cc1ccc(N(C)CC(O)CO)cc1` (stereo not drawn) [Compound (33), N-(2,3-dihydroxypropyl)-N-methyl-p-toluidine], the “Extinction rate constant” value in assay [1] was determined as 1.4e+08 M⁻¹ s⁻¹. In addition, the inhibition in vivo at 5 % in assay [2] came out at 43%. Also, the inhibition in vivo at 1 % in assay [3] amounted to 54%; in the assay on skin of ICR/HR mice, 35%. Also, the “Inhibition ratio regarding immediate blackening” value in assay [4] was determined as 67%. In addition, in the assay on collagen, the “Protein denaturation inhibition ratio” value is listed as 44%.
`CCCCN(CC(O)CO)c1ccc(C)c(C)c1` (stereo not drawn) [Compound (34), N-n-butyl-N-(2,3-dihydroxypropyl)-3,4-xylidine]: in assay [1], the “Extinction rate constant” value turned out to be 1.7e+08 M⁻¹ s⁻¹. In assay [2], the inhibition in vivo at 5 % is 65%. The results for the inhibition in vivo at 1 % (in assay [3]; with skin of ICR/HR mice) were 64% and 43%, respectively. In addition, in assay [4], the “Inhibition ratio regarding immediate blackening” value stood at 63%. Also, the “Protein denaturation inhibition ratio” value in the assay on collagen was found to be 61%.
For the compound `CCCCCCCCN(CC(O)CO)c1ccc(OC)cc1` (stereo not drawn) [Compound (35), N-(2,3-dihydroxypropyl)-N-octyl-p-anisidine], in assay [1], the “Extinction rate constant” value was 2.2e+08 M⁻¹ s⁻¹. In assay [2], the inhibition in vivo at 5 % is 78%. In addition, the results for the inhibition in vivo at 1 % (in assay [3]; in the assay on skin of ICR/HR mice) were 81% and 42%, respectively. In addition, the “Inhibition ratio regarding immediate blackening” value in assay [4] is given as 78%. Also, the “Protein denaturation inhibition ratio” value in the assay with collagen worked out at 84%.
